Where two headings read alike, the source gives them in different places.
Tests used:
[1] = tested on: purified enzyme (capsaicin hydrolysis activity); assay: Effects of various reagents upon enzymatic activity (capsaicin hydrolysis); format: biochemical, Streptomyces mobaraensis IFO 13819
[2] = tested on: Streptomyces mobaraensis (enzyme according to the invention); assay: Hydrolysis of antibiotic substances having an amide bond by the enzyme of the invention; format: biochemical; conditions: for hydrolyzing activity for the substrate: 10 mM antibiotic, pH 7.5, 37° C., 2 minutes, 0.1 mM CoCl2, 1 Unit = 1 μmol substrate hydrolyzed in 1 hour; for Activity kcat (approximate value): substrate of the enzyme according to the invention
Experimental: The enzyme is examined on the hydrolysis of an antibiotic substance having an amide bond. As the antibiotic substance are used Penicillin G, Penicillin V and Ampicillin, respectively. The reaction is carried out at 37° C. for 2 minutes by using 20 μg of the enzyme in 0.1 ml of 50 mM tris-hydrochloric acid buffer solution containing 0.1 mM of CoCl2 as a solvent (pH: 7.5) under a condition that a final concentration of the antibiotic substance is 10 mM.
As a result, if the hydrolyzing activity for capsaicin at pH of 7.5 is 200 U/mg (Unit is defined as an amount of the enzyme required for hydrolyzing 1 μmol of the substrate at 37° C. for 1 hour), the activities for Penicillin G, Penicillin V and Ampicillin are 2200 U, 6000 U and 1000 U, respectively.
In order to show the utility of the enzyme according to the invention, it is compared with the existing Penicillin Vacylase originated from Streptomyces lavendulae (Raquel Torres-Guzman et al., Biochemical and Biophysical Research Communications, Vol. 291, 593-0597 (2002)) (compared with activity kcat (1/s)).

[3] = tested on: Penicillin Vacylase originated from Streptomyces lavendulae; conditions: cited from earlier work; for Activity kcat: substrate of Streptomyces lavendulae Penicillin V acylase, Torres-Guzman et al. 2002
[4] = pH dependency, heat stability and temperature dependency of the purified enzyme; format: physicochemical, Streptomyces mobaraensis IFO 13819
[5] = tested on: Streptomyces mobaraensis (enzyme according to the invention); assay: Hydrolysis of N-benzyloxycarbonyl-L-amino acids by the enzyme of the invention; format: biochemical
Experimental: An ability of hydrolyzing/dehydration condensing by the enzyme according to the invention is examined by using N-benzyloxycarbonyl-L-amino acid (Z-L-amino acid) as an amide. The reaction is performed by using […] of the enzyme in 0.2 ml of 50 mM tris-hydrochloric acid buffer solution containing 0.1 mM of CoCl2 as a solvent (pH: 7.5) under a condition that a final concentration of N-benzyloxycarbonyl-L-amino acid is 10 mM at 37° C. for 30 minutes (Z-L-Phe and Z-L-Tyr) or 1 hour (the other Z-L-amino acids).

[6] = tested on: Urethane hydrolase IV (strain F-86); conditions: cited from earlier work
[7] = tested on: Capsaicin hydrolyzing/dehydration condensing enzyme of the invention; conditions: fatty acid as substrate with vanillylamine; water/n-hexane two-phase system, 37° C.; HPLC of hexane phase
Experimental: (§1) The reaction temperature is 37° C.
(§2) As a comparative example, aminoacylase is used. The resulting capsaicin analog is quantitatively measured by HPLC analysis of the hexane phase.

Aminoacylase = assay: Synthesis of capsaicin analogs from vanillylamine and fatty acids, comparative aminoacylase; format: biochemical; conditions: comparative example; fatty acid as substrate with vanillylamine; water/n-hexane two-phase system, 37° C.; HPLC of hexane phase
Experimental: as §1, §2

[8] = reagent 1 mM, 0.13 mM capsaicin/50 mM tris-HCl (pH 7.5), control = 100
[9] = 10 mM Z-L-amino acid, pH 7.5, 37° C., 0.1 mM CoCl2

Row | Molecule | Relative activity [1, 8] [%] | Activity for the substrate [5, 9] [Unit/mg] | Activity for the substrate ([6]; Matsumura et al. 1985) [Unit/mg] | further results
1 | O=[N+]([O-])[O-].[Ag+] [AgNO3] | 100.1 | – | – | –
2 | CC1(C)S[C@@H]2[C@H](NC(=O)[C@H](N)c3ccccc3)C(=O)N2[C@H]1C(=O)O [Ampicillin] | – | – | – | Activity for the substrate [2]: excellent activity; hydrolyzing activity for the substrate [2]: 1000 U; Activity kcat (approximate value) [2]: >17 s⁻¹; Activity for the substrate [3]: hardly an activity; Activity kcat [3]: 0 s⁻¹
3 | [Ca+2].[Cl-].[Cl-] [CaCl2] | 101.6 | – | – | –
4 | [Cl-].[Cl-].[Co+2] [CoCl2] | – | – | – | effect on capsaicin hydrolysis activity of the purified enzyme [1]: enhanced; Relative activity ([1]; pH 7.5): 145.5%; residual activity with added cobalt ion vs no cobalt ion [4]: higher
5 | O=S(=O)([O-])[O-].[Cu+2] [CuSO4] | 96.9 | – | – | –
6 | O=C(NC(CSCc1ccccc1)C(=O)O)OCc1ccccc1 (stereo not shown) [Cys(Bzl)] | – | 250 | 228 | –
7 | O[C@@H](CS)[C@@H](O)CS [DTT] | 79.8 | – | – | –
8 | O=C(O)CN(CCN(CC(=O)O)CC(=O)O)CC(=O)O [EDTA] | – | – | – | Relative activity ([1]; pH 7.5): 85.5%
9 | O=S(=O)([O-])[O-].[Fe+2] [FeSO4] | 88.8 | – | – | –
10 | N[C@@H](CCC(=O)N[C@@H](CS)C(=O)NCC(=O)O)C(=O)O [GSH] | 99.8 | – | – | –
11 | NC(=O)CI [Idoacetoamide] | 86.5 | – | – | –
12 | N[C@@H](CS)C(=O)O [L-Cys] | 101.2 | – | – | –
13 | CCCCCCCCCCCC(=O)O [Lauric acid] | – | – | – | Synthesis of capsaicin analogs [7]: 1.25 mM; Synthesis of capsaicin analogs (Aminoacylase): 0.051 mM
14 | O=S(=O)([O-])[O-].[Mg+2] [MgSO4] | 96.0 | – | – | –
15 | CCCCCCCCCCCCCC(=O)O [Myristic acid] | – | – | – | Synthesis of capsaicin analogs [7]: 0.24 mM
16 | O=C(O)c1cc[c]([Hg][Cl])cc1 [PCMB] | 96.6 | – | – | –
17 | CC1(C)S[C@@H]2[C@H](NC(=O)Cc3ccccc3)C(=O)N2[C@H]1C(=O)O [Penicillin G] | – | – | – | Activity for the substrate [2]: excellent activity; hydrolyzing activity for the substrate [2]: 2200 U; Activity kcat (approximate value) [2]: >50 s⁻¹; Activity for the substrate [3]: hardly an activity; Activity kcat [3]: 3.4 s⁻¹
18 | CC1(C)S[C@@H]2[C@H](NC(=O)COc3ccccc3)C(=O)N2[C@H]1C(=O)O [Penicillin V] | – | – | – | hydrolyzing activity for the substrate [2]: 6000 U; Activity kcat (approximate value) [2]: >80 s⁻¹; Activity kcat [3]: 60.25 s⁻¹
19 | C[C@H](NC(=O)OCc1ccccc1)C(=O)O [Z-Ala] | – | 29 | 228 | –
20 | N=C(N)NCCC[C@H](NC(=O)OCc1ccccc1)C(=O)O [Z-Arg] | – | 37 | 0 | –

Row | Molecule | Relative activity [1, 8] [%] | Activity for the substrate [5, 9] [Unit/mg] | Activity for the substrate ([6]; Matsumura et al. 1985) [Unit/mg] | further results
21 | NC(=O)C[C@H](NC(=O)OCc1ccccc1)C(=O)O [Z-Asn] | – | 12 | 138 | –
22 | O=C(O)C[C@H](NC(=O)OCc1ccccc1)C(=O)O [Z-Asp] | – | – | 360 | –
23 | NC(=O)CC[C@H](NC(=O)OCc1ccccc1)C(=O)O [Z-Gln] | – | 27 | 144 | –
24 | O=C(O)CC[C@H](NC(=O)OCc1ccccc1)C(=O)O [Z-Glu] | – | 12 | 246 | –
25 | O=C(O)CNC(=O)OCc1ccccc1 [Z-Gly] | – | 0 | 108 | –
26 | O=C(NC(Cc1cnc[nH]1)C(=O)O)OCc1ccccc1 (stereo not shown) [Z-His] | – | 36 | 18 | –
27 | CCC(C)C(NC(=O)OCc1ccccc1)C(=O)O (stereo not shown) [Z-Ile] | – | 28 | 18 | –
28 | CC(C)C[C@H](NC(=O)OCc1ccccc1)C(=O)O [Z-Leu] | – | 100 | 1668 | –
29 | NCCCC[C@H](NC(=O)OCc1ccccc1)C(=O)O [Z-Lys] | – | 38 | 0 | –
30 | CSCCC(NC(=O)OCc1ccccc1)C(=O)O (stereo not shown) [Z-Met] | – | 85 | 294 | –
31 | O=C(N[C@@H](Cc1ccccc1)C(=O)O)OCc1ccccc1 [Z-Phe] | – | 470 | 54 | Activity for the substrate [5]: high activity; Activity for the substrate [6]: lower activity
32 | O=C(N[C@@H](CO)C(=O)O)OCc1ccccc1 [Z-Ser] | – | 0 | 18 | –
33 | C[C@@H](O)[C@H](NC(=O)OCc1ccccc1)C(=O)O [Z-Thr] | – | 4.5 | 162 | –
34 | O=C(N[C@@H](Cc1ccc(O)cc1)C(=O)O)OCc1ccccc1 [Z-Tyr] | – | 650 | 0 | Activity for the substrate [5]: high activity; Activity for the substrate [6]: lower activity
35 | CC(C)C(NC(=O)OCc1ccccc1)C(=O)O (stereo not shown) [Z-Val] | – | 43 | 84 | –
36 | [Cl-].[Cl-].[Zn+2] [ZnCl2] | 95.5 | – | – | –
37 | COc1cc(CNC(=O)CCCC/C=C/C(C)C)ccc1O [capsaicin] | – | – | – | hydrolyzing activity for capsaicin ([2]; pH 7.5, reference value for the antibiotic activities): 200 U/mg
38 | OCCS [β-mercaptoethanol] | – | – | – | Relative activity ([1]; reagent 10 mM, 0.13 mM capsaicin/50 mM tris-HCl (pH 7.5), control = 100): 79.3%
39 | (NH4)6Mo7O24 | 88.7 | – | – | –

From US20040106172A1, “Hydrolyzing/dehydration condensing enzymes, method for producing the enzyme and method for synthesizing amide by using the enzyme” (Okayama University, priority 2002, published 2004)
